Converted amounts (≈) assume the structure as drawn.
Columns and labels:
[1] = target: T1, α4β2-nACh (Homo sapiens, UniProt P17787+P43681); assay: Off-target two-electrode voltage clamp assay, α4β2-nACh; type: cell-based; conditions: 10 μM, mean ± SEM
T1 construct: expressed in transfected cells
Procedure: (§1) The NIMH PDSP is Directed by Bryan L. Roth at the University of North Carolina at Chapel Hill and Project Officer Jamie Driscoll at NIMH, Bethesda Md., USA. Radioligand binding was measured in the presence of 10 μM 1180-420 and 1180-447. […] For experimental details please refer to the PDSP web site https://pdsp.unc.edu/ims/investigator/web/. Both 1180-420 and 1180-447 were also tested at AMPA, nicotinic acetylcholine, serotonin, GABA, and glycine ion channels using a two-electrode voltage clamp assay.

[2] = target: T2, α1-Glycine (Homo sapiens, UniProt P23415); assay: Off-target two-electrode voltage clamp assay, α1-Glycine; type: cell-based; conditions: 10 μM, mean ± SEM
T2 construct: expressed in transfected cells
Procedure: as §1

[3] = target: T3, 5-HT1A (Homo sapiens, UniProt P08908); assay: NIMH PDSP radioligand binding, 5-HT1A; conditions: read-out: Radioligand binding in 10 μM compound (% control)
T3 construct: NIMH PDSP (assay provider)
Procedure: as §1
(§2) Receptor binding profiles of compound 1180-447 were generously provided by the National Institute of Mental Health's Psychoactive Drug Screening Program, Contract # HHSN-271-2013-00017-C(NIMH PDSP). The NIMH PDSP is directed by Bryan L. Roth at the University of North Carolina at Chapel Hill and Project Officer Jamie Driscoll at NIMH, Bethesda Md., USA. Radioligand binding was measured in the presence of 10 μM 1180-447. […] For experimental details please refer to the PDSP web site https://pdsp.unc.edu/ims/investigator/web/.
(§3) The NIMH PDSP is Directed by Bryan L. Roth at the University of North Carolina at Chapel Hill and Project Officer Jamie Driscoll at NIMH, Bethesda Md., USA. Radioligand binding was measured in the presence of 10 μM 1180-420. […] For experimental details please refer to the PDSP web site https://pdsp.unc.edu/ims/investigator/web/.

[4] = target: T4, 5-HT1B (Homo sapiens, UniProt P28222); assay: NIMH PDSP radioligand binding, 5-HT1B; conditions: read-out: Radioligand binding in 10 μM compound (% control)
T4 construct: NIMH PDSP (assay provider)
Procedure: as §1, §2, §3

[5] = target: T5, 5-HT1D (Homo sapiens, UniProt P28221); assay: NIMH PDSP radioligand binding, 5-HT1D; conditions: read-out: Radioligand binding in 10 μM compound (% control)
T5 construct: NIMH PDSP (assay provider)
Procedure: as §1, §2, §3

[6] = target: T6, 5-HT2A (Homo sapiens, UniProt P28223); assay: NIMH PDSP radioligand binding, 5-HT2A; conditions: for remaining activity at 10 µM: read-out: Radioligand binding in 10 μM compound (% control)
T6 construct: NIMH PDSP (assay provider)
Procedure: as §1, §2, §3

[7] = target: T7, 5-HT2C (Homo sapiens, UniProt P28335); assay: NIMH PDSP radioligand binding, 5-HT2C; conditions: for remaining activity at 10 µM: read-out: Radioligand binding in 10 μM compound (% control)
T7 construct: NIMH PDSP (assay provider)
T7 sequence (P28335 33-458): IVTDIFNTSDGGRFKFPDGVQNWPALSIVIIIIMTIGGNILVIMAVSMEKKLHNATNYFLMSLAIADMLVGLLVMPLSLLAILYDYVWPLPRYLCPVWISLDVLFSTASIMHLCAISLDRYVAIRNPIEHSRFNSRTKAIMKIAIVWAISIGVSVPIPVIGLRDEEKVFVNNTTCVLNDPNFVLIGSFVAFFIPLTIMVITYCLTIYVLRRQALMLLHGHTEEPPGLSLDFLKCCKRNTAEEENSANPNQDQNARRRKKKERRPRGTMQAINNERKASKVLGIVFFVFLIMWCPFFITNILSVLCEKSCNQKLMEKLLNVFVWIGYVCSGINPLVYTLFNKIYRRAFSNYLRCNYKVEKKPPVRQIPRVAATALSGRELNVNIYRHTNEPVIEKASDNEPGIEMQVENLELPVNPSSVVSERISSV
Procedure: as §1, §2, §3

[8] = target: T8, 5-HT3 (Homo sapiens, UniProt P46098); assay: NIMH PDSP radioligand binding, 5-HT3; conditions: read-out: Radioligand binding in 10 μM compound (% control)
T8 construct: NIMH PDSP (assay provider)
Procedure: as §1, §2, §3

[9] = target: T9, 5-HT6 (Homo sapiens, UniProt P50406); assay: NIMH PDSP radioligand binding, 5-HT6; conditions: read-out: Radioligand binding in 10 μM compound (% control)
T9 construct: NIMH PDSP (assay provider)
Procedure: as §1, §2, §3

[10] = target: T10, D2 (Homo sapiens, UniProt P14416); assay: NIMH PDSP radioligand binding, D2; conditions: read-out: Radioligand binding in 10 μM compound (% control)
T10 construct: NIMH PDSP (assay provider)
Procedure: as §1, §2, §3

[11] = target: norepinephrine transporter (Homo sapiens, UniProt P23975); assay: NIMH PDSP radioligand binding, norepinephrine transporter; conditions: read-out: Radioligand binding in 10 μM compound (% control)
Procedure: as §1, §2, §3

[12] = target: κ-opioid receptor (Homo sapiens, UniProt P41145); assay: NIMH PDSP radioligand binding, κ-opioid receptor; conditions: for remaining activity at 10 µM: read-out: Radioligand binding in 10 μM compound (% control); for Ki: read-out: pKi values from non-linear regression of radioligand competition binding isotherms (converted)
Procedure: as §1, §2, §3

[13] = target: H1 (Homo sapiens, UniProt P35367); assay: NIMH PDSP radioligand binding, H1; conditions: read-out: Radioligand binding in 10 μM compound (% control)
Procedure: as §1, §2, §3

[14] = target: H3 (Homo sapiens, UniProt Q9Y5N1); assay: NIMH PDSP radioligand binding, H3; conditions: read-out: Radioligand binding in 10 μM compound (% control)
Procedure: as §1, §2, §3

[15] = target: H4 (Homo sapiens, UniProt Q9H3N8); assay: NIMH PDSP radioligand binding, H4; conditions: read-out: Radioligand binding in 10 μM compound (% control)
Procedure: as §1, §2, §3

[16] = target: α1B (Homo sapiens, UniProt P35368); assay: NIMH PDSP radioligand binding, α1B; conditions: read-out: Radioligand binding in 10 μM compound (% control)
Procedure: as §1, §2, §3

[17] = target: M1 (Homo sapiens, UniProt P11229); assay: NIMH PDSP radioligand binding, M1; conditions: read-out: Radioligand binding in 10 μM compound (% control)
Procedure: as §1, §2, §3

[18] = target: hERG (Homo sapiens, UniProt Q12809); assay: NIMH PDSP hERG binding
Procedure: as §1, §2, §3

[19] = system: CNS receptors; assay: Off-target profile, NIMH PDSP CNS receptors (panel summary); type: binding; conditions: 10 μM
Procedure: as §1, §2, §3

[20] = target: T11, 5-HT3A (Homo sapiens, UniProt P46098); assay: Off-target two-electrode voltage clamp assay, 5-HT3A; type: cell-based; conditions: 10 μM, mean ± SEM
T11 construct: expressed in transfected cells
Procedure: as §1

[21] = nephelometer, oocyte recording solution
[22] = read-out: pKi values from non-linear regression of radioligand competition binding isotherms (converted)

κ-opioid receptor, sequence (P41145 whole entry): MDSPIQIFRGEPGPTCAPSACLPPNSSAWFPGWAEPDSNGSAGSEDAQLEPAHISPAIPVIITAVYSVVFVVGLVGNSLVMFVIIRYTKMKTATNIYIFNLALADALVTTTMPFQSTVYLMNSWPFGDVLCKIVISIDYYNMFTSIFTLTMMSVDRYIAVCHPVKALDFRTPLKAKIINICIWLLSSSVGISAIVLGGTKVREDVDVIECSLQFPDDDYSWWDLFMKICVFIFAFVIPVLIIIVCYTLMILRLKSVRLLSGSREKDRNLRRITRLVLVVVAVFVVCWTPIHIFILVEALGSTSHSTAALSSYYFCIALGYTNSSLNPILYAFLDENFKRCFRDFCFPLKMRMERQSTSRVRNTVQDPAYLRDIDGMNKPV
T6 sequence (P28223 whole entry, species assumed): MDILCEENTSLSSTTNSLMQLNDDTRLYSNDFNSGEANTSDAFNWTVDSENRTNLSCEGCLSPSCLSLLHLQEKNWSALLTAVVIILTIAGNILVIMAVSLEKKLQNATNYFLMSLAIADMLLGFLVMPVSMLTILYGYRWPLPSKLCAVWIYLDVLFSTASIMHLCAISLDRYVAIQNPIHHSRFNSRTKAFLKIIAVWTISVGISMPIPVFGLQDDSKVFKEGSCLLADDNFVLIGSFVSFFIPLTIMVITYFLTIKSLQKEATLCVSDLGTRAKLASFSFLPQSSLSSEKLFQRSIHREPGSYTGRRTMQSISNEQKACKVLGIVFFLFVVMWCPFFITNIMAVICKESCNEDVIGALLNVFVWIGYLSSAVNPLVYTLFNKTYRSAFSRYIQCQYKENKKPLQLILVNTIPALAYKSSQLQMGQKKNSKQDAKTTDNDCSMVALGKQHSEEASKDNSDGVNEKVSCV
T4 sequence (P28222 whole entry, species assumed): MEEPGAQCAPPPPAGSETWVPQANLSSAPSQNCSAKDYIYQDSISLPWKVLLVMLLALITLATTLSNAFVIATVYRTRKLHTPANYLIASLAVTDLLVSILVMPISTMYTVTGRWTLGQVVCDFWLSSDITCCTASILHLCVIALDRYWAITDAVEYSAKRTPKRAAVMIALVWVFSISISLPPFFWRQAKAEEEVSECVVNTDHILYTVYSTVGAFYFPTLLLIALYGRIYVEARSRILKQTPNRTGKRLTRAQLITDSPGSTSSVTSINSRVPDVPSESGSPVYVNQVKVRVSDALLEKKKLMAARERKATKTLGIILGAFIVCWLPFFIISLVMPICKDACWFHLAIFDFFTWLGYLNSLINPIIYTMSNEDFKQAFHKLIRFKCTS
T3 sequence (P08908 whole entry, species assumed): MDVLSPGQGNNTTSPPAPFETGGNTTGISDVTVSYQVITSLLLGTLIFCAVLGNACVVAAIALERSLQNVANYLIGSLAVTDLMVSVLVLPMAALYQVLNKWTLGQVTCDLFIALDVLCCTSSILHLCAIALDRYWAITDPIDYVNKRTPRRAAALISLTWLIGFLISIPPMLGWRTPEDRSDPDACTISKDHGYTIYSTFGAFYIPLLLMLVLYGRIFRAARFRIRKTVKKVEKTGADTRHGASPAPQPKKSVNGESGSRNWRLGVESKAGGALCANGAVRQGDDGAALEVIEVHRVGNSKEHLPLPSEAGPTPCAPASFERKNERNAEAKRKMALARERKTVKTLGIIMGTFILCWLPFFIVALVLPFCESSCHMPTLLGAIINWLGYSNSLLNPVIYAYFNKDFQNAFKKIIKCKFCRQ
T5 sequence (P28221 whole entry, species assumed): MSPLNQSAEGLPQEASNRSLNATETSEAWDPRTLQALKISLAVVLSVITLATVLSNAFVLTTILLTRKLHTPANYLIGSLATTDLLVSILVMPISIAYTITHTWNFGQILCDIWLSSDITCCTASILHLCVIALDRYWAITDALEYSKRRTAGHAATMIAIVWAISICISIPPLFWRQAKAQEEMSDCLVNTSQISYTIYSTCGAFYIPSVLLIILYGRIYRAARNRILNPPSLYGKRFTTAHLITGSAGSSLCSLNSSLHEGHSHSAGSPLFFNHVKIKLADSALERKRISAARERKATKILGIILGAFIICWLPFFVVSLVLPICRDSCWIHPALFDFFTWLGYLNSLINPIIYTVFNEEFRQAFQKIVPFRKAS
M1, sequence (P11229 whole entry): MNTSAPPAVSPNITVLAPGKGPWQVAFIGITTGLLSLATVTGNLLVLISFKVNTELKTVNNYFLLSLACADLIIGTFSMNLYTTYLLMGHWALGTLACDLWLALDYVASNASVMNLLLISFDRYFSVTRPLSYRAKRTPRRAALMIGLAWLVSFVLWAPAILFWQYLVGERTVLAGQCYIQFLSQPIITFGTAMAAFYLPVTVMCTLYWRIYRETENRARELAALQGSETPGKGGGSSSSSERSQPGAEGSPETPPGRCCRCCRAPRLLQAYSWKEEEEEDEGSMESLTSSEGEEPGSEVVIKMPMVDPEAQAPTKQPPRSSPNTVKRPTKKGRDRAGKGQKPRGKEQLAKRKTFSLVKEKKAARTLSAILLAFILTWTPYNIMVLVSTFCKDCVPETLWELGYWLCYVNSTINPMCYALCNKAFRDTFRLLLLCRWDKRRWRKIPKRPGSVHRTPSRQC
α1B, sequence (P35368 whole entry): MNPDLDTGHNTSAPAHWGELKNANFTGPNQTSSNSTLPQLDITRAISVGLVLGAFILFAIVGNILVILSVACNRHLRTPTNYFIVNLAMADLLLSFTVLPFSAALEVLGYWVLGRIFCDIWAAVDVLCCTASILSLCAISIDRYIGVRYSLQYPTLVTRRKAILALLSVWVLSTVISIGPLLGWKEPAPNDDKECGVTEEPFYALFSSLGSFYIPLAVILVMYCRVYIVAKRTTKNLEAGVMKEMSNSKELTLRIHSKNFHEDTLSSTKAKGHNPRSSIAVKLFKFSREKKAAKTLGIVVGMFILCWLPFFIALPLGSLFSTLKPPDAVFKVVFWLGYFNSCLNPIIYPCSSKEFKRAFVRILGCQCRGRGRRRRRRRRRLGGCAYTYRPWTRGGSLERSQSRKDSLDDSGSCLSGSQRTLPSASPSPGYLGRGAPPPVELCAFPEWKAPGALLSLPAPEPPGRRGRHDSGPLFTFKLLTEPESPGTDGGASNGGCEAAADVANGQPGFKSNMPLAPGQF
norepinephrine transporter, sequence (P23975 whole entry, species assumed): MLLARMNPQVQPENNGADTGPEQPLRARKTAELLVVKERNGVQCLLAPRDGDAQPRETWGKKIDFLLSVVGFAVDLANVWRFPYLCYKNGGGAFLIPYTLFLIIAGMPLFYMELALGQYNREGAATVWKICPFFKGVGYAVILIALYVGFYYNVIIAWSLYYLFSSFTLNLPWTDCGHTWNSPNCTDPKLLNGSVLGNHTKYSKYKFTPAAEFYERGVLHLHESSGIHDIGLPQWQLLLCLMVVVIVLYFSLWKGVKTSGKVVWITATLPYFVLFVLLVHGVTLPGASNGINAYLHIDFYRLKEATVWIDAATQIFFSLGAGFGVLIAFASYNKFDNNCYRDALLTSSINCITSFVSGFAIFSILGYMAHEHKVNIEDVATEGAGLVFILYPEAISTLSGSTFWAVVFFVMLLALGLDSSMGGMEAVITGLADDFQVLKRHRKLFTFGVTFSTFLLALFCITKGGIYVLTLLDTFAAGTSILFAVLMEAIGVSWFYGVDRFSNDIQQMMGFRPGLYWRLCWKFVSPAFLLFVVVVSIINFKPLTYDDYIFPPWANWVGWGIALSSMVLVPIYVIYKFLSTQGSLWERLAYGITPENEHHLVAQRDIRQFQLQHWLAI
T10 sequence (P14416 whole entry): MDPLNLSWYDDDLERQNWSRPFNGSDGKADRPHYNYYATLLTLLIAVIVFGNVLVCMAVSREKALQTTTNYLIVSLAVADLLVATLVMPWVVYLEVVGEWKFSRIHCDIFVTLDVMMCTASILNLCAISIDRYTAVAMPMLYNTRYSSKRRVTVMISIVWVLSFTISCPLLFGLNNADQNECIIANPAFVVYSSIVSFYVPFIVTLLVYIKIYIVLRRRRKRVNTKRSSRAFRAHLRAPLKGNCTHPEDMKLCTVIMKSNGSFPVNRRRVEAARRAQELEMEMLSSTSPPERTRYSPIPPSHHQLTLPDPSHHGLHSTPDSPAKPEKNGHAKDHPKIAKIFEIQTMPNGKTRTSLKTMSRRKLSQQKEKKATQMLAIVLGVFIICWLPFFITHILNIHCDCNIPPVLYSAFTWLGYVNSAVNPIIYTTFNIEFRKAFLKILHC
T8 sequence (P46098 24-478, species assumed): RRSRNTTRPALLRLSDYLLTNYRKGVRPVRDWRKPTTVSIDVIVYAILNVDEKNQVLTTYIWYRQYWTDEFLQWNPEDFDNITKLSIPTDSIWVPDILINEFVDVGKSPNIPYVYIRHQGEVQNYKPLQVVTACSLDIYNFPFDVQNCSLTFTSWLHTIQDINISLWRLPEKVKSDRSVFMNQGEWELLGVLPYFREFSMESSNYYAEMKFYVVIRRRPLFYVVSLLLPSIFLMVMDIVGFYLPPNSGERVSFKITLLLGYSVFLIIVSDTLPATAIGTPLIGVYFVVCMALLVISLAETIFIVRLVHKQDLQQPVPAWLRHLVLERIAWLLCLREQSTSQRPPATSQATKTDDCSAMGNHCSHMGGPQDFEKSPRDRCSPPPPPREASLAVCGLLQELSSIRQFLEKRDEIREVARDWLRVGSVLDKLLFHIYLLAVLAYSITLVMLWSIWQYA
H4, sequence (Q9H3N8 whole entry): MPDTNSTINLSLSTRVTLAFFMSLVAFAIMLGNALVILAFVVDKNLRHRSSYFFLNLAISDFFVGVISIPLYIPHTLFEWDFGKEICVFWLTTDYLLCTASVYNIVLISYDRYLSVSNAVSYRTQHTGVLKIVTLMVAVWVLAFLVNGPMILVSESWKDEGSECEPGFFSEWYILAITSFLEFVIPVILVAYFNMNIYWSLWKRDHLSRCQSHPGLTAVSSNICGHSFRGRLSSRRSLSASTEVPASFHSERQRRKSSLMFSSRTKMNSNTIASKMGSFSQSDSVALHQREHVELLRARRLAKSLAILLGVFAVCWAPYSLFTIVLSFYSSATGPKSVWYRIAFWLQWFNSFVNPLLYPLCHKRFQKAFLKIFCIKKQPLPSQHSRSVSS
T11 sequence (P46098 24-478, species assumed): as the sequence (P46098 24-478, species assumed) above

Row | Structure (SMILES) | % control response [1] [% control response] | remaining activity at 10 µM [3] [%] | remaining activity at 10 µM [4] [%] | remaining activity at 10 µM [5] [%] | remaining activity at 10 µM [6] [%] | remaining activity at 10 µM [7] [%] | remaining activity at 10 µM [8] [%] | remaining activity at 10 µM [9] [%] | remaining activity at 10 µM [10] [%] | remaining activity at 10 µM [11] [%] | remaining activity at 10 µM [12] [%] | Ki [12] [µM] | remaining activity at 10 µM [13] [%] | remaining activity at 10 µM [14] [%] | remaining activity at 10 µM [15] [%] | remaining activity at 10 µM [16] [%] | remaining activity at 10 µM [17] [%] | Radioligand binding in 10 μM compound (% control) [18] [% control] | receptors with >50% inhibition / receptors tested [19] | other results
1 | COc1ccc(OCC2c3cccn3CCN2C(=O)c2cccc(Cl)c2)cc1 (stereo not shown) [1180-420, (3-Chlorophenyl)(1-((4-methoxyphenoxy)methyl)-3,4-dihydropyrrolo[1,2-a]pyrazin-2(1H)-yl)methanone] | 56.4 ± 5.3 | 110 | 95 | 112 | 69 | 113 | 116 | 75 | 87 | 75 | 32 | 1.58 | 74 | 99 | 90 | 100 | 90 | 73 | 4/44 | % control response [2]: 77.6 ± 4.9 % control response
2 | COc1ccc(OCC2c3cccn3CC(=O)N2Cc2cccc(C(F)(F)F)c2)cc1 (racemic) [1180-447, 1-((4-Methoxyphenoxy)methyl)-2-(3-(trifluoromethyl)benzyl)-1,2-dihydropyrrolo[1,2-a]pyrazin-3(4H)-one] | 52.7 ± 6.3 | 101 | 109 | 115 | 49 | 32 | 68 | 85 | 101 | 70 | 47 | 1.58 | 86 | 79 | 107 | 102 | 88 | 70 | 4/44 | % control response [20]: 98.1 ± 10.4 % control response; Ki [6, 22]: 2 µM; Ki [7, 22]: > 10 µM; Solubility [21]: 57 µM (≈ 24.5 µg/mL)
